Assay results as given in patent US10682360B2, “Antimicrobial formulations and applications thereof” (priority 2014, dated 2020).

Columns and labels:
[1] = test system: Pseudomonas aeruginosa 9027; assay: ASTM E2315 suspension time-kill procedure; assay type: cell-based; details: P. aeruginosa 9027, contact time 2 hours; for % Reduction / Log10 reduction: vs time zero control
Protocol: (§1) Efficacy of these substances, alone and in combination, was tested against two strains of bacteria using the ASTM E2315 test method.
(1) Pseudomonas aeruginosa 9027: This is a Gram-negative, rod-shaped microorganism with a single flagellum. P. aeruginosa grows optimally under aerobic conditions but can use various electron acceptors to respire anaerobically as needed. This organism is an opportunistic pathogen with the ability to form resilient biofilms in human tissues under anaerobic conditions.
(§2) ASTM E2315 is a quantitative test method designed to assess changes in the populations of a microorganism in an antimicrobial liquid suspension. The method can be conducted using contact times ranging from 10 seconds to 24 hours. The test method uses non-antimicrobial agents as controls to establish baselines for microbial reductions.
(§3) Test microorganisms were prepared in liquid culture medium. Suspensions of test microorganisms were standardized as needed by dilution in a buffered saline solution. Test and control substances were dispensed in identical volumes to sterile vessels.
(§4) Independently, test and control substances were inoculated with each test microorganism, then mixed and incubated. Control substances were immediately harvested and used to represent the concentration present at the start of the test.
(§5) At the conclusion of the contact time, a volume of liquid test solution was harvested and chemically neutralized. Test microorganisms were spun down and the cell pellet was resuspended in phosphate buffered saline (PBS) prior to inoculation of the test systems. 10 mL volumes of Dey/Engley neutralizer broth supplemented with 5% magnesium chloride and 35% polysorbate 80 were used for chemical neutralization. After chemical neutralization, test systems were filtered using a filtration manifold to recover surviving microorganisms.
(§6) Dilutions of neutralized test solution were assayed using appropriate growth media to determine surviving microorganism levels at each respective contact time. Reductions of microorganisms were calculated by comparing initial microbial concentrations to final microbial concentrations. The limit of detection for the assay was 10 CFU/mL.
(§7) Percent reduction of bacterial population was calculated according to the following equation, where A=number of viable test microorganisms in the test substance after the contact time and B=number of viable test microorganisms in the control substance immediately after inoculation. Log10 reduction was also calculated.
(§8) The experimental procedure of Example 1 was followed with the exception of substitutions of some antibiotics. Cefuroxime (a second generation cephalosporin) and/or ceftazidime (a third generation cephalosporin active against P. aeruginosa) were used to replace cefazolin.

[2] = test system: Staphylococcus aureus 33592 (MRSA); assay: ASTM E2315 suspension time-kill procedure; assay type: cell-based; details: contact time 2 hours; for CFU/mL / % Reduction / Log10 reduction: S. aureus 33592; for % Reduction / Log10 reduction: vs time zero control
Protocol: as §1
(2) Staphylococcus aureus 33592 (MRSA): This is a Gram-positive, coccus-shaped aerobe that is resistant to methicillin, a penicillin derivative. Rapid reproduction and resistance to antibiotics can make S. aureus infections particularly difficult to treat. MRSA bacteria are resistant to drying and can survive on surfaces and fabrics for an extended period of time.
as §2, §3, §4, §5, §6, §7, §8

[3] = Example 2, time zero control 3.35 × 10^7 CFU/mL

For Polymyxin B [Test 11], the CFU/mL [1, 3] was 1.00 × 10^3 CFU/mL, the “% Reduction” value ([1]; Example 2) was 99.997% and the Log10 reduction ([1]; Example 2) was 4.55.

For `CO/N=C(\C(=O)N[C@@H]1C(=O)N2C(C(=O)O)=C(COC(N)=O)CS[C@H]12)c1ccco1` [Test 12, Cefuroxime], the CFU/mL [1, 3] was 2.00 × 10^5 CFU/mL, the “% Reduction” value ([1]; Example 2) was 99.44% and the Log10 reduction ([1]; Example 2) was 2.25. For the same compound, the “antibacterial effect / interaction of the antibiotics, in words” value (from here on “antibacterial effect / interaction”) [1] was “bactericidal”.

With Polymyxin B [Test 5] the CFU/mL ([1]; Example 1, time zero control 1.80 × 10^6 CFU/mL, limit of detection 10 CFU/mL) was <1.00 × 10^1 CFU/mL, the “% Reduction” value ([1]; Example 1) was greater than 99.9996% and the Log10 reduction ([1]; Example 1) was greater than 5.45. For the same compound, the “antibacterial effect / interaction” value [1] was “essentially complete elimination”.

In the case of `Cc1nnc(SCC2=C(C(=O)O)N3C(=O)[C@@H](NC(=O)Cn4cnnn4)[C@H]3SC2)s1` [Test 1, Cefazolin], the CFU/mL ([2]; Example 1, time zero control 2.85 × 10^6 CFU/mL, ambient 25° C.) is reported as 1.44 × 10^5 CFU/mL, the “% Reduction” value ([2]; Example 1) is reported as 94.96% and the Log10 reduction ([2]; Example 1) is reported as 1.30.

In the case of `CO/N=C(\C(=O)N[C@@H]1C(=O)N2C(C(=O)O)=C(COC(N)=O)CS[C@H]12)c1ccco1` [Test 8, Cefuroxime], the CFU/mL ([2]; Example 2, time zero control 1.75 × 10^6 CFU/mL) is reported as 1.50 × 10^6 CFU/mL, the “% Reduction” value ([2]; Example 2) is reported as 14.29% and the Log10 reduction ([2]; Example 2) is reported as 0.07. The “antibacterial effect / interaction” value ([2]; S. aureus 33592 (MRSA)) was “less activity against MRSA than the first generation cephalosporin, cefazolin”.
